Measurements: patent US20180272270A1, “AMINE COMPOUNDS FOR SELECTIVELY REMOVING HYDROGEN SULPHIDE” (BASF SE, priority 2015, published 2018)

Test: Dynamic viscosity of the amines (Anton Paar Stabinger SVM3000 viscometer)
Type: physicochemical

| Dynamic viscosity (20 ° C.) [mPa · s] | Dynamic viscosity (40 ° C.) [mPa · s] | Dynamic viscosity (60 ° C.) [mPa · s] | Dynamic viscosity (80 ° C.) [mPa · s] | SMILES |
| --- | --- | --- | --- | --- |
| 5.4 | 2.5 | 1.6 | 1.1 | CN(C)CCOCCNC(C)(C)C [TBAEEDA, 2-(2-tert-butylaminoethoxy)ethyl-N,N-dimethylamine] |
| 58.4 | – | 6.9 | 3.6 | CC(C)(C)NCCOCCO [TBAEE, 2-(2-tert-butylaminoethoxy)ethanol, reference compound] |
